# Experimental data from patent US11524938B2, “Aromatic sulfonamide derivatives” (Bayer Pharma Aktiengesellschaft, priority 2016, dated 2022).
# Where “and” joins values, the source holds several entries; their conditions need not be identical. Identical values can stand only once.
# Target: T1, endogenous P2X4 channels (Homo sapiens, UniProt Q99571)
# T1 construct: measure calcium influx through endogenous P2X4 channels into primary human monocytes
# T1 sequence (Q99571 1-388): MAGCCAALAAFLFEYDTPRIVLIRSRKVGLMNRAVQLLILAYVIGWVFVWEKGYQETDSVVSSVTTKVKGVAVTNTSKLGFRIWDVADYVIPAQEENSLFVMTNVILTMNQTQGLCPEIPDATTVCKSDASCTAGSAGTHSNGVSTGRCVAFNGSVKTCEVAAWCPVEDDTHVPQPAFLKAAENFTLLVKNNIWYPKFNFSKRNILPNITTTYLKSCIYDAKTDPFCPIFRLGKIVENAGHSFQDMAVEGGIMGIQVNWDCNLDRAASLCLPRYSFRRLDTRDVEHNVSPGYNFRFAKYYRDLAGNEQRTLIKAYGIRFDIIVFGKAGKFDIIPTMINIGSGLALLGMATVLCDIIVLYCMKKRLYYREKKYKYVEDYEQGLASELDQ
# Test: Human Monocyte P2X4 Assay (FLIPR)
# Assay type: cell-based
# Details: primary human monocytes, 3 μM BzATP, one value per donor
# Experimental: The principle of the assay is to measure calcium influx through endogenous P2X4 channels into primary human monocytes, following activation by 2′,3′-O-(4-benzoyl-benzoyl)-ATP (Bz-ATP). Intracellular calcium concentration changes were measured with a Flipr® (Molecular Devices) device using a calcium sensitive dye (Fluo-8). In primary monocytes P2X4 is located at the lysosome membrane, therefore exocytosis has to be triggered to expose P2X4 at the cellular membrane.
# Human peripheral blood mononuclear cells (PBMCs) from anticoagulated blood (blood cells, BC) were isolated via density gradient centrifugation. Whole blood was diluted 1:3 with PBS. Samples of 30 mL were layered carefully on top of 15 mL Biocoll (BIOCHROM) in 50 mL centrifuge tubes (Falcon). Tubes were centrifuged at 914×g for 25 min at RT without brake. The PBMC layer was removed with a 10 mL pipette and transferred into tubes with ice-cold PBS in a total volume of 50 mL. Cells were washed twice by pelleting at 300×g at 4° C., for 10 min and for 5 min respectively. PBMCs were re-suspended in 10 mL medium (X-vivo, Biozym Scientific) and counted in a Neubauer chamber.
# Monocytes were isolated by negative selection using the Monocyte isolation kit II from Miltenyi (#130-091-153) according to the instructions. Isolation should be done fast and cells and solutions should be kept on ice at any time. PBMCs in batches of 10 exp8 cells were pelleted (300×g, 10 min) and re-suspended with 300 μL MACS buffer in a 50 mL Falcon tube. FcR Blocking reagent (100 μl) and Biotin-Ab (100 μl) were added, mixed and incubated on ice for 10 min. MACS buffer (300 μL) and anti-Biotin Micro-beads (100 μL) were added, mixed and incubated on ice for 15 min. Cells were washed by pelleting (300×g for 10 min) and re-suspended in 500 μL MACS buffer. For each batch one separation column was placed in the MACS separator and rinsed with 3 mL MACS buffer. The cell suspension was added to the column, followed by 3×3 mL MACS buffer for washing, and the eluent containing the monocytes was collected. Cells were pelleted (300×g for 10 min), re-suspended in X-vivo medium and counted. Monocytes were seeded into fibronectin-coated micro-plates (384-well, black, flat transparent bottom; Corning #3848) at a density of 30,000 cells/well in 50 μL, and cultivated over night (37° C., 5% CO2).
# Test substances were dissolved in 100% DMSO at a stock concentration of 10 mM and stored at −20° C. in aliquots. Serial dilutions (2×) were prepared in DMSO and diluted 500× with assay buffer to generate the antagonist plate. In the Flipr measurement, 10 μL per well were transferred (4× dilution) and a final top concentrations of 5 μM and 0.05% DMSO were obtained in the assay. Agonist BzATP was stored at 10 mM in aliquots and diluted to an intermediate concentration of 15 μM to generate the agonist plate. In the Flipr measurement, 10 μL per well were transferred (5× dilution) so that a final assay concentration of 3 μM was obtained.
# For the experiment, the medium of the cell plate was discarded manually and 70 μL/well loading buffer was added and incubated for 1 h (37° C., 5% CO2). Loading buffer contained HBSS (w/o calcium/magnesium), 10 mM Hepes pH 7.4, 5 μM Fluo-8 (AM) (Tebu-bio) and 50 mM methylamine (Sigma) to trigger exocytosis. Loading buffer was discarded manually and 30 μL/well low-calcium assay buffer (5 mM KCl, 145 mM NaCl, 0.5 mM CaCl2, 13 mM glucose, 10 mM Hepes pH 7.4) was added. The antagonist plate was transferred (10 μL/well) and after 15 min at RT the agonist plate (10 μL/well) was transferred.
# Agonist addition was recorded for 240 seconds after a 10 second baseline. For analysis, a baseline correction was applied, and the maximum of the curve was extracted. Data were normalized towards 0% inhibition (signal at 3 μM BzATP) and 100% inhibition (absence of BzATP stimulation) and fitted with a four-parameter sigmoidal inhibition curve using Prism GraphPad to obtain IC50 values.
structure (smiles),measurement,value
"N#Cc1cnn(-c2ccc(NC(=O)Cc3ccccc3Cl)cc2S(N)(=O)=O)c1 [Example 39, 2-(2-Chlorophenyl)-N-[4-(4-cyano-1H-pyrazol-1-yl)-3-sulfamoylphenyl]acetamide]",Human P2X4 Monocytes (FLIPR Assay) Efficacy for different donors,81% and 78%
